According to patent US9511080B2, “Okadaella gastrococcus and cancer” (Okada Medical Services Pty Ltd, priority 2009, dated 2016):

Legend:
[1] = tested on: Okadaella gastrococcus (Og) isolates; experiment: In vitro antibiotic sensitivity of Og (E-tests and diffusion disc tests); format: cell-based; settings: for Og can be treated using antibiotic (in vitro assays): 25 Og isolates from gastric mucosal biopsy specimens
Procedure: Twenty-five Og isolates were obtained from gastric mucosal biopsy specimens. E-tests and diffusion disc tests were performed under microaerophilic condition (Oxygen 5%, CO2 10%, and Nitrogen 85%) utilizing. 5% horse blood agar, except metronidazole which was tested under anaerobic condition. Antibiotic sensitivity was read 72 hours after incubation. Randomly selected isolates were also examined under TEM to confirm the ultrastructure of Og. Results: Og was sensitive to various antibiotics, in particular to the penicillins, the cephalosporins, the quinolones, and chloramphenicol.

[2] = tested on: intestinal metaplasia of the gastric mucosa; settings: co-administered with Hp eradication therapy (Walker, 2003); cited from earlier work

| SMILES | Og can be treated using antibiotic (in vitro assays) [1] | Antibiotic sensitivity of Og ([1]; E-tests and diffusion disc tests, microaerophilic, 5% horse blood agar, read 72 hours after incubation) | Effect on intestinal metaplasia of the gastric mucosa [2] |
| --- | --- | --- | --- |
| CC1(C)S[C@@H]2[C@H](NC(=O)[C@H](N)c3ccccc3)C(=O)N2[C@H]1C(=O)O [ampicillin] | can be treated | – | – |
| CO/N=C(\C(=O)N[C@@H]1C(=O)N2C(C(=O)O)=C(COC(C)=O)CS[C@H]12)c1csc(N)n1 [cefotaxime] | can be treated | – | – |
| O=C(N[C@H](CO)[C@H](O)c1ccc([N+](=O)[O-])cc1)C(Cl)Cl [chloramphenicol] | can be treated | sensitive | – |
| O=C1O[C@H]([C@@H](O)CO)C(O)=C1O [ascorbic acid] | – | – | significantly resolved the intestinal metaplasia |
| COc1c(N2CCNC(C)C2)c(F)cc2c(=O)c(C(=O)O)cn(C3CC3)c12 (stereo not shown) [gatifloxacin] | can be treated | – | – |
| O=C(O)c1cn(C2CC2)c2cc(N3CCNCC3)c(F)cc2c1=O [ciprofloxacin] | can be treated | – | – |
